Among the data in ChEMBL document CHEMBL1201862, “PubChem BioAssay data set” (2004) are IC50, EC50 and AC50 values, retold here.

The nature of test [1]: M. tuberculosis H37Rv growth inhibitors, H37Rv strain (AID 1626). The format is functional.
The nature of test [2]: cells. The class given is functional.
For test [3], the target named is T1, Estrogen receptor (Homo sapiens, UniProt P03372).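 Further: potency for inhibiting coactivator peptide recruitment to the receptor.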
T1 sequence (P03372 whole entry): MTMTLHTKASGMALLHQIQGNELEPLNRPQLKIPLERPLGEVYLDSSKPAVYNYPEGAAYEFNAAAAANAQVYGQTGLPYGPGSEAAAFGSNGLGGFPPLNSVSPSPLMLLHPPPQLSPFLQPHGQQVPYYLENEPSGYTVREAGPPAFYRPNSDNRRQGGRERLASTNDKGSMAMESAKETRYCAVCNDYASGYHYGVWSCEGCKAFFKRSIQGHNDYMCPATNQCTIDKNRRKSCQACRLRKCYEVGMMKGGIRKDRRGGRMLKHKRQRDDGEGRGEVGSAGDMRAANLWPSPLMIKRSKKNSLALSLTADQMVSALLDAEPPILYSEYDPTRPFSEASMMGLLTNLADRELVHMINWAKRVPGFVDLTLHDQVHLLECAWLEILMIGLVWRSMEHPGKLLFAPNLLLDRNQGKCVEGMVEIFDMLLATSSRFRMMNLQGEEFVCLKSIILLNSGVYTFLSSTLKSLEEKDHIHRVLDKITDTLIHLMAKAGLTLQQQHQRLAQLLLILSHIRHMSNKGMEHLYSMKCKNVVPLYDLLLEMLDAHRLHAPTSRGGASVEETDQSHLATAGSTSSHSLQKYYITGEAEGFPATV

Test [4] concerns the target T2, Mucolipin-3 (Homo sapiens, UniProt Q8TDD5).
T2 sequence (Q8TDD5 whole entry): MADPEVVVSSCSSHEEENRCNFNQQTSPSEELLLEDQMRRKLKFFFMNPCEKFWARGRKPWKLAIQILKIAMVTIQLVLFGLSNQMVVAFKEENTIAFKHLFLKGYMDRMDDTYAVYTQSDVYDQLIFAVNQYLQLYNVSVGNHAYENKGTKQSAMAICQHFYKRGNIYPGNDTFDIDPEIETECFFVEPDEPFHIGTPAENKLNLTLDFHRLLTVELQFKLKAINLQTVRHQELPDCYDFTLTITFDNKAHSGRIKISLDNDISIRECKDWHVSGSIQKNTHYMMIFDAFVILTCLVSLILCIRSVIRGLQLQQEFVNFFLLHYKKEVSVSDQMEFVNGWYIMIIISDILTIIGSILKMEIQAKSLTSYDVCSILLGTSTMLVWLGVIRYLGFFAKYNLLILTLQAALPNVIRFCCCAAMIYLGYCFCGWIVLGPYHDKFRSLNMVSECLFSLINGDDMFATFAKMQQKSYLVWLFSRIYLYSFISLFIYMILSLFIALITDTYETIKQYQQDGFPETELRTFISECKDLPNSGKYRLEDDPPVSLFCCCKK
Briefly: Dose response cell-based high-throughput screening assay for agonists of the transient receptor potential channel ML3 (TRPML3). [Related pubchem assays: 1526, 1424, 1448 ]. The format is functional.

Test [5] addresses Ion channel NompC (Danio rerio, UniProt Q7T1G6). Briefly: Fluorescence counterscreen assay for TRPML3 agonists: dose response cell-based high-throughput screening assay to identify agonists of the transient receptor potential channel N1 (TRPN1). [Related pubchem assays: 1526, 1424, 1448 ]. The format is functional. On the technique in general: Counterscreens check selectivity or assay interference.

Test [6] has as its target Induced myeloid leukemia cell differentiation protein Mcl-1 (Homo sapiens, UniProt Q07820). The format is functional.
A short description of test [7]: Luminescence Cell-Based Dose Retest to Confirm Inhibitors of Cancer Stem Cells. [Related pubchem assays (depositor defined):AID2717, AID2721]. The class given is functional. The conditions noted are these: Homo sapiens.
Test [8] addresses Genome polyprotein (dengue virus type 2, UniProt P29990). Briefly: flavivirus cap methylation enzyme inhibition – biochemical, confirmation dose response, primary screen (AID 588689). The format is functional.
The target of test [9] is Large T antigen (Simian virus 40, UniProt P03070). The format is functional, Betapolyomavirus macacae.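 Further: Confirmatory-stage PubChem screen for compounds that inhibit SV40 T antigen.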
Chain of Large T antigen (P03070 whole entry, the tested form may be a part): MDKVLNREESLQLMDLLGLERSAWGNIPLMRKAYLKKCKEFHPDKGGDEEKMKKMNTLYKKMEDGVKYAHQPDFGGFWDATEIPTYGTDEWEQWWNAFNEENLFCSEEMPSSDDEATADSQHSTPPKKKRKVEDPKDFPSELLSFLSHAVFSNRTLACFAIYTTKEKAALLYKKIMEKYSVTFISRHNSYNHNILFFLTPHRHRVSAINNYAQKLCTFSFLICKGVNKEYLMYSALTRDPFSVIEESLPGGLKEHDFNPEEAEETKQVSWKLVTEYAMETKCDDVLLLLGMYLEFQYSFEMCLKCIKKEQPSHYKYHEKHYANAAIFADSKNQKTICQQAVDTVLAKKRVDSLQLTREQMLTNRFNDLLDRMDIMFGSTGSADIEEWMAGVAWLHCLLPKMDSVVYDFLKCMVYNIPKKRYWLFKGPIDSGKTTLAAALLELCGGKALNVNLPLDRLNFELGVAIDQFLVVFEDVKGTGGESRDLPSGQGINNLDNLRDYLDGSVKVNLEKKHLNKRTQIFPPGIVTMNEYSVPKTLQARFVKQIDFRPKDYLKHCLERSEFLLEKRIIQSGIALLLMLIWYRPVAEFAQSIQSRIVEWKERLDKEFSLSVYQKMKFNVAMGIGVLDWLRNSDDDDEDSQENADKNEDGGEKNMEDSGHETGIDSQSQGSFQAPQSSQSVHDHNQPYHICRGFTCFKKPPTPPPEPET
Test [10] concerns the target T3, Carboxy-terminal domain RNA polymerase II polypeptide A small phosphatase 1 (Homo sapiens, UniProt Q9GZU7).
T3 sequence (Q9GZU7 whole entry): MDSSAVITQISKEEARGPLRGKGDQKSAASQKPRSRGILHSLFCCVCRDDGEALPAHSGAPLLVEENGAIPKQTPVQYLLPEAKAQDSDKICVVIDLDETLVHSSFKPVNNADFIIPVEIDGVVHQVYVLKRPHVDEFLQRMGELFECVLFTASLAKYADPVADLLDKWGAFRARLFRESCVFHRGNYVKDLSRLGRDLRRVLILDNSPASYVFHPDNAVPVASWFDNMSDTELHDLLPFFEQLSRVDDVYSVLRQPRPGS
Briefly: CTDSP1 inhibitors, concentration-response, biochemical, absorbance readout, ultra-high-throughput screen actives (AID 540297). The format is functional.

Test [11] has as its target T4, Bifunctional protein GlmU (Mycobacterium tuberculosis, UniProt P9WMN3).
T4 sequence (P9WMN3 whole entry): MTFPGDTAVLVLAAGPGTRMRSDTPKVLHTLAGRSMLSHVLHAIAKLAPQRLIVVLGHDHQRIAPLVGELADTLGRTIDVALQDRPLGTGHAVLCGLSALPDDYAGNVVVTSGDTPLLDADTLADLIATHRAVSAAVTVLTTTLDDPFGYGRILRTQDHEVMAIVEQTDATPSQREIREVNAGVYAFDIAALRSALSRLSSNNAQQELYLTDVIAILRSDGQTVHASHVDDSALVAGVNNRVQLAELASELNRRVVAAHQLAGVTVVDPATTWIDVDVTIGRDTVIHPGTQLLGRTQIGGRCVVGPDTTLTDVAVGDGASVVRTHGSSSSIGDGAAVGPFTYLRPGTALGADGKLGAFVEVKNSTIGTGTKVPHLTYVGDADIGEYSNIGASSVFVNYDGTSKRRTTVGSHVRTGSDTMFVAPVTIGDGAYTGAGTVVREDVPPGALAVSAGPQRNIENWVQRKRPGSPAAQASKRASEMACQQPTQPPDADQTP
Briefly: Inhibitors of Mycobacterial Glucosamine-1-phosphate acetyl transferase (GlmU). Secondary screen. On the set-up: species or system Mycobacterium tuberculosis H37Rv.

Test [12] is described as follows: blockers of HIV-1 envelope-mediated cell-cell fusion – cherry-pick, dose response (AID 652057). The class given is functional, cell-based.
Test [13] has as its target Paired box protein Pax-8 (Homo sapiens, UniProt Q06710). Briefly: PAX8 transcriptional activity inhibition in RMG-I – RMG-I cells, luciferase, cherry-pick, dose response (AID 687027).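 Further: luciferase reporter driven by Pax8 target thyroperoxidase promoter measured by SteadyGlo luminescence.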 The format is functional, cell-based.
Test [14] in a line: OVCAR-3 cell viability loss – plate reader, dry powder samples, PAX8 inhibitor project, dose response (AID 743044). The class given is functional, cell-based.
The nature of test [15]: HIV-1 AD8 envelope cell-cell fusion blockers – cherry-pick, dose response (AID 652062).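 Further: luciferase signal from cell-cell fusion driven by HIV-1 clade B AD8 Env; potency is for inhibitors of fusion seen as a drop in luminescence.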 The format is functional, cell-based.
The nature of test [16]: general cell-killing toxicity readout – plate reader, dry powder samples, cytotoxicity control for PAX8 inhibitor project, dose response (AID 743021). The format is functional, cell-based.
The nature of test [17]: rise of 2N DNA cells, HeLa – IC50, dose response (AID 1117349). The format is functional, cell-based.
The nature of test [18]: RKO cell viability reduction, dose response, CellTiter-Glo luminescence (AID 1117322). The class given is functional.
Test [19] can be described thus: DRD fibroblast viability loss – cell-based, non-viral oncogenic, luminescence, dose response (AID 1934). The format is functional. The settings on record: Homo sapiens.
A short description of test [20]: rise of 4N DNA cells, HeLa – IC50, dose response (AID 1117351). The class given is functional, cell-based.
The subject of test [21] is BJ. Briefly: BJ-TERT fibroblast viability loss – cell-based, RAS-independent, luminescence, dose response (AID 1933). The conditions noted are these: Homo sapiens. The class given is functional.
Test [22] has as its system BJ. Briefly: cells. The settings on record: Homo sapiens. The format is functional, cell-based.
Test [23] concerns BJ. Briefly: BJ-TERT-LT-ST fibroblast viability loss – cell-based, RAS-independent, luminescence, dose response (AID 1935).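 Further: BJ fibroblasts immortalized with TERT plus LT and ST oncogenes.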 The class given is functional. The conditions noted are these: Homo sapiens.
Test [24] is described as follows: SNU-C1 cell viability reduction, dose response, CellTiter-Glo luminescence (AID 1117323). The class given is functional, cell-based.
The nature of test [25]: cytotoxicity toward HCT116 cells – cell-based, CellTiter-Glo luminescence, IC50, dose response (AID 1117332). The format is functional. The settings on record: HCT-116. On the technique in general: ATP-based viability assays read luminescence as a measure of living cells.
In test [26] the test system is BJ. Briefly: growth inhibition of engineered Ras-driven BJ cells – cell-based, alamar blue fluorescence, cherrypicked samples, dose response (AID 2631).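 Further: confirmatory dose-response assay in RAS-dependent BJ fibroblasts engineered with TERT, LT and ST, with cytotoxicity read by fluorescence.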 The format is functional. The conditions noted are these: Homo sapiens. (In general: Resazurin is reduced to fluorescent resorufin, in cell work by metabolically active cells.)
Test [27] can be described thus: cytotoxicity toward HT-29 cells – cell-based, CellTiter-Glo luminescence, IC50, dose response (AID 1117330). The format is functional.
A short description of test [28]: Reduced DLD-1 viability, concentration-response, CellTiter-Glo luminescence (AID 1117352). The format is functional.
A short description of test [29]: HCT116 cell viability decrease, GSK3B pretreatment – CellTiter-Glo, IC50, dose response (AID 1117339). The class given is functional. The conditions noted are these: HCT-116.

Active and inactive are the calls of the source.

Chain of Ion channel NompC (Q7T1G6 whole entry): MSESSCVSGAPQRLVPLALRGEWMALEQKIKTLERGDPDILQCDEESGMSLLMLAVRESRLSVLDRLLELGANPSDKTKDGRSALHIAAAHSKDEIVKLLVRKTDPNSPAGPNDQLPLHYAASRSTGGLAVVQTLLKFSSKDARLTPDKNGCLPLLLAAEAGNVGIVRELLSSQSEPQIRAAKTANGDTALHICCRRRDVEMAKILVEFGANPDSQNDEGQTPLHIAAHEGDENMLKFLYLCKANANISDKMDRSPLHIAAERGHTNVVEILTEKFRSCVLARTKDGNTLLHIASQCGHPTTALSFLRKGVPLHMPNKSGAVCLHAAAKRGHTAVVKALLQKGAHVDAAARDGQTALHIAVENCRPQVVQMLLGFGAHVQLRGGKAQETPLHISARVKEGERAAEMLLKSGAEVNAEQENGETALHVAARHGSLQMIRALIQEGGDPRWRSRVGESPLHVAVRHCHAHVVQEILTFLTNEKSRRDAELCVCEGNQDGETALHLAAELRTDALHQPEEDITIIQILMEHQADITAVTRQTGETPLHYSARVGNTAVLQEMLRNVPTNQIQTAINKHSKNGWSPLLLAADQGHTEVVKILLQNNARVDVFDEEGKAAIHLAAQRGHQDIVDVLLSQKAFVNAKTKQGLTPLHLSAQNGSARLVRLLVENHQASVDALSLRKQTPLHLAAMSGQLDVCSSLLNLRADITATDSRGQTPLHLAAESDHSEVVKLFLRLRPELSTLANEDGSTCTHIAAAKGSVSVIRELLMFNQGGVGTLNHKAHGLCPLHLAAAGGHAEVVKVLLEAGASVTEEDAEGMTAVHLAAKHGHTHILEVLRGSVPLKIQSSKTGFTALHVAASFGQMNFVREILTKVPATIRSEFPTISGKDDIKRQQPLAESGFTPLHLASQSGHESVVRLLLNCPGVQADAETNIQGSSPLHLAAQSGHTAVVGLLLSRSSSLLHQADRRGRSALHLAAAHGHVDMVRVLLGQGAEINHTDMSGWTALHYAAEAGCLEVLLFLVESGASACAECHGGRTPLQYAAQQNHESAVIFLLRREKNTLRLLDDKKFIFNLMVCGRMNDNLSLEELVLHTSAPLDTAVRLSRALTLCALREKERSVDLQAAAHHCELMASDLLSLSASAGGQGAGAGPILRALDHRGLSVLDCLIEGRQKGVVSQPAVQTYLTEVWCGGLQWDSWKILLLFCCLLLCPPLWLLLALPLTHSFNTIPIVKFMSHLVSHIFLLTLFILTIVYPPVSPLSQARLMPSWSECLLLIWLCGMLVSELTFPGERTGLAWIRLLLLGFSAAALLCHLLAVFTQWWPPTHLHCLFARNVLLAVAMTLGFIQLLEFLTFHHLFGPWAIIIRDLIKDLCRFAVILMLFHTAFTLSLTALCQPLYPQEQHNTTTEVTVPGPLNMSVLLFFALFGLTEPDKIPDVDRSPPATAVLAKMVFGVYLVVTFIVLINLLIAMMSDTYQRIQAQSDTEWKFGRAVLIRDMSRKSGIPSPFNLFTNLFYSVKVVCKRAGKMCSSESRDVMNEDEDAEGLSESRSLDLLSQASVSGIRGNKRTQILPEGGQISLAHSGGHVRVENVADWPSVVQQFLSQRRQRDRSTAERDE
Chain of Genome polyprotein (P29990 2492-3391 limits assumed): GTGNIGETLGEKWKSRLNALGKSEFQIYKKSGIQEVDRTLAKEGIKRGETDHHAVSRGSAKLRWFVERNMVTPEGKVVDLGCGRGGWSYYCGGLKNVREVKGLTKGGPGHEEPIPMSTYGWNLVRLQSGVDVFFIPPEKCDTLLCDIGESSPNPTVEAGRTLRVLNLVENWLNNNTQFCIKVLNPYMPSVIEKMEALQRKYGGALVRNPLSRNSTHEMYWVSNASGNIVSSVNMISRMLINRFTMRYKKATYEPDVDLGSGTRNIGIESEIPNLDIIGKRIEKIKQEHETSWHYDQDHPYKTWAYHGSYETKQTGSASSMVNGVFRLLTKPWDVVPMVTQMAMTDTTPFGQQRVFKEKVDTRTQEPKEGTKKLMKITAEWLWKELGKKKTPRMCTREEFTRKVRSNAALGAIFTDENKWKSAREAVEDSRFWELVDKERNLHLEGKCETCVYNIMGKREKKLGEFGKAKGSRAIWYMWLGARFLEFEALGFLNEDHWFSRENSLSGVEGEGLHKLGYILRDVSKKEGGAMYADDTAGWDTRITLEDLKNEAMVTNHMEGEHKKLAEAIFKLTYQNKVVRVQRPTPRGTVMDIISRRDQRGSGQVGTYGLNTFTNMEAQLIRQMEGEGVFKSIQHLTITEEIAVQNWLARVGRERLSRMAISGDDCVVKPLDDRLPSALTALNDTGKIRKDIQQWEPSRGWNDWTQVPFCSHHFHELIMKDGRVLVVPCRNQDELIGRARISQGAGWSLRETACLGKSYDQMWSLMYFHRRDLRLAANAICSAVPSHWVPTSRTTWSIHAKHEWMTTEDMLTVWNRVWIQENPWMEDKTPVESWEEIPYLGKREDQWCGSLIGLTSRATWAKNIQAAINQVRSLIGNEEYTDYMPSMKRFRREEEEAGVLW
Chain of Induced myeloid leukemia cell differentiation protein Mcl-1 (Q07820 whole entry): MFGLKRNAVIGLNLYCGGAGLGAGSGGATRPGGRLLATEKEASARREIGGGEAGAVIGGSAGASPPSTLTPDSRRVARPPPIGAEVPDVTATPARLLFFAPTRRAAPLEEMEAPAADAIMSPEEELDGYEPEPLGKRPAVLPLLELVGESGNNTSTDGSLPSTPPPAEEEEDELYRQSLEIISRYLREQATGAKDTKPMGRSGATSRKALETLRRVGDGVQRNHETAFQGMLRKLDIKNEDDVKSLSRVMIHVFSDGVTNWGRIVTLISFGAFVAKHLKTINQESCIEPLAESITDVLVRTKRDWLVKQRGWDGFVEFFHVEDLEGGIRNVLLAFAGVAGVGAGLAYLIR
Chain of Paired box protein Pax-8 (Q06710 whole entry): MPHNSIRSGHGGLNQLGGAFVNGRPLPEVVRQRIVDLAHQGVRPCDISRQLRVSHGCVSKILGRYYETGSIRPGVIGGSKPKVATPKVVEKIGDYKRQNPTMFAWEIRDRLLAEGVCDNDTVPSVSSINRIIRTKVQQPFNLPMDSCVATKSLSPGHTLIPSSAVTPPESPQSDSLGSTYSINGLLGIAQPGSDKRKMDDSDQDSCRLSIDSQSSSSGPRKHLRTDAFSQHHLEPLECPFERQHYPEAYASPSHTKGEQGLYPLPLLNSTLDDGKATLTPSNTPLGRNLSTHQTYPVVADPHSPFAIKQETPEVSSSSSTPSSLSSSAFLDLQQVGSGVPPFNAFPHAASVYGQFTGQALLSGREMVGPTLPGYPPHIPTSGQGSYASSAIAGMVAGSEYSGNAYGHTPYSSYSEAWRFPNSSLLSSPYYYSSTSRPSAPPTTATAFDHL

With `CCOC(=O)c1ccc(-n2c(CCC(=O)O)ccc2-c2cccs2)cc1`, the results for the IC50 in test [1] and in test [2] were > 100 µM (active) and 36.2 µM (active), respectively.
Turning to `CCOc1cccc(-c2nnc3sc(-c4cc(OC)c(OC)c(OC)c4)nn23)c1`, in test [3], the IC50 (in general, the midpoint of a concentration-inhibition curve) is recorded as > 50 µM (not active).
`CCC1CCCCN1S(=O)(=O)c1ccccc1[N+](=O)[O-]` (stereo not drawn): the EC50 – broadly, the concentration needed to bring the measured effect to its halfway point – in test [4] is 6.06 µM (active); in test [5] it was > 29.9 µM (not active).
In the case of `CCC1CCCCN1S(=O)(=O)c1ccc(S(=O)(=O)N(Cc2ccccn2)CC2CCCO2)cc1` (stereo not drawn), the EC50 in [4] is 1.81 µM (active); in test [5], > 29.9 µM (not active). Further, the IC50 in test [6] was < 0.4 µM (not active). Further, the AC50 – broadly, the concentration at which the activity in the assay is half-maximal – in test [7] is 2.4 µM (active).
Consider `O=C1NN(c2ccccc2)C(=O)/C1=C/c1ccc(-c2ccc(Cl)c(C(=O)O)c2)o1`, for which the IC50 in [8] is 32.2 µM (active); in test [9], 17.1 µM (active); in test [10], 4.07 µM (active); in test [11], 80.4 µM (active).
Turning to `O=S(=O)(NC1CCCCCC1)c1cccc2cccnc12`, the EC50 in test [4] was 3.4 µM (active); in test [5], > 29.9 µM (not active).
With `Cc1sc(N)nc1-c1ccccc1`, the IC50 in [1] was > 100 µM (active).
With `COc1ccccc1C#Cc1ccc2c(c1)O[C@H](CN(C)Cc1ccncc1)[C@@H](C)CN([C@@H](C)CO)S2(=O)=O`, the AC50 in [12] was 38.1 µM (active); in test [13], 10.9 µM (active); in [14], 57.8 µM (active); in [15], 25.9 µM (active); in [16], 61.5 µM (active).
With `Cc1ccc(OCC(=O)N/N=C\c2ccc(-c3cccc(C(=O)O)c3)o2)c(C)c1`, the IC50 in test [11] is 137 µM (active).
For the molecule `O/N=C/c1ccc2ccccc2c1`, the IC50 in test [1] was > 100 µM (active).
For the molecule `Cn1cnc([N+](=O)[O-])c1Sc1ncnc2[nH]cnc12` [AZATHIOPRINE], the IC50 in [17] was > 10 µM (inactive); in test [18], 2.66 µM (active); in [20], > 10 µM (inactive); in [24], > 20 µM (inactive); in [25], 0.207 µM (active); in [27], > 20 µM (inactive). Besides, the IC50 was 0.364 µM (active) in test [28] and 0.623 µM (active) in test [29]. The EC50 is 2.9 µM (active) in [19]; > 150 µM (not active) in [21]; 5.04 µM (inconclusive) in test [22]; > 150 µM (not active) in test [23]; > 133 µM (inactive) in test [26].
Regarding `CCCCCCCCCCCCNCCNCCNCC(=O)O` [DODICIN], the IC50 in [17] and in test [20] was > 10 µM (inactive) in each case.
